Experimental data reported in US20260083865A1, “PROSTATE SPECIFIC MEMBRANE ANTIGEN (PSMA) LIGANDS AND USE THEREOF” (priority 2022, published 2026).
Like-named read-outs stand apart in the source and are kept apart here. Numbered stars: 1 amine (or outer) side, 2 acyl side, 3 side chain; on linkers, the order of the positions; unused ones are H or OH. Bridge positions count the residues as written; N and C are the ends. Square brackets hold non-standard residues; d marks the D form. Side chains are listed from the residue outwards. Peptide text beside a SMILES is read from it. * marks the point of attachment. TtdsdLys(DOTA)NH2 = NC(=O)[C@@H](CCCCNC(=O)CN1CCN(CC(=O)O)CCN(CC(=O)O)CCN(CC(=O)O)CC1)NC(=O)CCC(=O)NCCCOCCOCCOCCCN*; X3 = O=C(O)CN1CCN(CC(=O)O)CCN(CC(=O)NCCCOCCOCCOCCCN*)CCN(CC(=O)O)CC1; DOTA = O=C(O)CN1CCN(CC(=O)O)CCN(CC(=O)*)CCN(CC(=O)O)CC1; Phe(4-Cl) = N[C@@H](Cc1ccc(Cl)cc1)C(=O)O; Ethylenediamine = C(CN[*:2])N[*:1]; X1 = O=C(CC1CCN([*:1])CC1)[*:2]; Suc = O=C(CCC(=O)[*:2])[*:1]; Tle = CC(C)(C)[C@H](N)C(=O)O; Aib = CC(C)(N)C(=O)O; CO = O=C([*:1])[*:2]; NHBu = CCCCN*

Tests used:
PC3-PIP tumor model = system: PC3-PIP tumor model; design: species or system mice; details: mouse, in vivo
From the text: Radioactively labeled compounds can be detected by imaging methods such as SPECT and PET. Furthermore, the data acquired by such techniques can be confirmed by direct measurement of radioactivity contained in the individual organs prepared from an animal injected with a radioactively labeled compound of the disclosure. Thus, the biodistribution (the measurement of radioactivity in individual organs) of a radioactively labeled compound can be determined and analyzed. […] All animal experiments were conducted in compliance with the German animal protection laws. Male swiss or NMRI nude mice (6-8 weeks old, Janvier Labs, France) were inoculated with 5×10^6 PC3-PIP cells in the right shoulder. For selected compounds an additional model was used, here male NMRI nude mice (6-8 weeks old, Janvier Labs, France) were inoculated with 5×10^6 or/1×10^7 C4-2 cells in the right shoulder. When tumors reached an appropriate size, the mice received ˜30 MBq ^111In-labeled compounds of the disclosure (diluted to 100 μL with PBS) administered intravenously via the tail vein. Images were obtained on a NanoSPECT/computed tomography system (Mediso Medical Imaging Systems, Budapest, Hungary) using exemplarily the following acquisition and reconstruction parameters (Table 10). [table] Imaging data were saved as DICOM files and analysed using VivoQuant™ software (Invicro, Boston, USA). In brief, regions of interest (ROIs) were drawn based on computed tomography images for the relevant organs and tissue regions such as heart (estimate of blood pool, bps), kidney, and tumor. The resulting numeric data expressed as a percentage of injected dose per gram of tissue (% ID/g) are presented in FIGS. 3(a)-3(ii) for the PC3-PIP model and FIGS. 4(a)-4(r) for the C4-2 model. Bars show mean % ID/g values of two to three animals per time point. Error bars indicate the value range (minimum and maximum values).

[1] = target: T1, PSMA-expressing C4-2 cells (Homo sapiens, UniProt Q04609); assay: FACS binding assay (competition with 50 nM PSM-0183); details: read-out: pIC50 [C4-2] CAT (converted)
T1 construct: PSMA-expressing C4-2 cells (ATCC, Cat. No. CRL-3314) were cultured in RPMI-1640; host or cells: C4-2 cells
T1 sequence (Q04609 whole entry): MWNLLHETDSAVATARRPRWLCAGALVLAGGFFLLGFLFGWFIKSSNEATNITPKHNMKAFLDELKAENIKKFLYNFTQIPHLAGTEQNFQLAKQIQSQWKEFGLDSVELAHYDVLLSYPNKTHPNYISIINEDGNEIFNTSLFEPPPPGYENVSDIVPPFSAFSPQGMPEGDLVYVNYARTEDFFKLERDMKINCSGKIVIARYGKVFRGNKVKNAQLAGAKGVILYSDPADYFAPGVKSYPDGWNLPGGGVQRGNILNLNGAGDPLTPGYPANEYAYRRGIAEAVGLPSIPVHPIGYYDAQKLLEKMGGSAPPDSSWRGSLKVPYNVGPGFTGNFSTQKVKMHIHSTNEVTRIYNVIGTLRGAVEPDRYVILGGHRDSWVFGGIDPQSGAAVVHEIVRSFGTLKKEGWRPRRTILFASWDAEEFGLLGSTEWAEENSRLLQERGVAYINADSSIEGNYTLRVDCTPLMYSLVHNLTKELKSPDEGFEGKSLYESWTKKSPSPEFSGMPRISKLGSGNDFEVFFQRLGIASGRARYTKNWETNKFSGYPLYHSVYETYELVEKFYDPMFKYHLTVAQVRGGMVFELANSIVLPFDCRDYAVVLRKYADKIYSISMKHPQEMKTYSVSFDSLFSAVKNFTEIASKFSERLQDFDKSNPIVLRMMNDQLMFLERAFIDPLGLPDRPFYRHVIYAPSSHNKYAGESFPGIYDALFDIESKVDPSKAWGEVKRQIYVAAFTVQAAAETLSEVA
Summary of the method: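 C4-2 cells were incubated 1 h at 4 °C with 50 nM AF488-labelled peptide PSM-0183 plus increasing test compound concentrations, then washed twice in ice-cold buffer. Median fluorescence in the AF488 channel was read by flow cytometry. IC50/pIC50 was derived by 4PL fitting of MFI versus concentration.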

[2] = target: T2, Fc-fusion protein of human PSMA (hPSMA-Fc) (Homo sapiens, UniProt Q04609); assay: Surface plasmon resonance assay (Biacore T200, single cycle kinetic); assay type: binding; details: read-out: pKD CAT (converted)
T2 construct: purchased Acro Biosystems PSA-H5264
T2 sequence (Q04609 44-750 limits assumed): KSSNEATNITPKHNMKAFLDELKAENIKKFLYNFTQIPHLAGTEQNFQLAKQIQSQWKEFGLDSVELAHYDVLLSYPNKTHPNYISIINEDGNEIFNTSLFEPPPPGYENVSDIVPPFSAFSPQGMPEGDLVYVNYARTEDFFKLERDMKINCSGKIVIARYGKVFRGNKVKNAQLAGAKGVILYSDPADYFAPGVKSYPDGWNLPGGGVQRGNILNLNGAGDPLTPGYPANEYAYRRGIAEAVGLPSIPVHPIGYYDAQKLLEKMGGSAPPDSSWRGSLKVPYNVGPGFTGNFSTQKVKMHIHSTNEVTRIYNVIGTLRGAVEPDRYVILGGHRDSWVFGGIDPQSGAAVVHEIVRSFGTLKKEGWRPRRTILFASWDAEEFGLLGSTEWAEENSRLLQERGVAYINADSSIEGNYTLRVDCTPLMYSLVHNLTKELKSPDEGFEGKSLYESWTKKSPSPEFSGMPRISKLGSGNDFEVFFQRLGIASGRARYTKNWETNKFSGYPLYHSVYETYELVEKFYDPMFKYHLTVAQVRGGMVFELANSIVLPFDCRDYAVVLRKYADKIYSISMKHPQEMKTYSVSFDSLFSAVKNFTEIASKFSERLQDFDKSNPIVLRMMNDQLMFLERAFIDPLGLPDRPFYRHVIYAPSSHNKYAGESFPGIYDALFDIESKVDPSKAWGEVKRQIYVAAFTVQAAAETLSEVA
Summary of the method: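 hPSMA-Fc was captured (~1000 RU) on an Fc-binding-peptide CM5 chip, and compounds were run in single cycle kinetic mode at 25° C in HBST with 0.1% DMSO. Double-blank-corrected sensorgrams were fitted to a 1:1 Langmuir model to give KD, reported as pKD.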

[3] = FACS binding, C4-2 cells, competition with 50 nM PSM-0183, category
[4] = SPR, hPSMA-Fc, single cycle kinetic, 25° C., category
[5] = FACS binding, PSMA-expressing C4-2 cells, pIC50 category
[6] = PSMA SPR assay, hPSMA-Fc, 25° C., pKD category
[7] = FACS binding, C4-2 cells, category
[8] = pIC50 category of FACS binding, C4-2 cells
[9] = pKD category for PSMA SPR activity assay, hPSMA-Fc, 25° C.

| SMILES | AUC ratio [T/K] (PC3-PIP tumor model) | Tumor AUC (PC3-PIP tumor model) | IC50 [1, 3] | Kd [2, 4] | IC50 [1, 5] | Kd [2, 6] | IC50 [1, 7] | Kd ([2]; PSMA SPR assay, category) | IC50 [1, 8] | Kd [2, 9] |
| --- | --- | --- | --- | --- | --- | --- | --- | --- | --- | --- |
| C[C@@H](O)[C@H](NC(=O)CN1CCN(CC(=O)O)CCN(CC(=O)O)CCN(CC(=O)O)CC1)C(=O)NC(C)(C)C(=O)N[C@@H](Cc1ccccc1)C(=O)N[C@H]1CSSC[C@@H](C(=O)N[C@H](C(=O)NCCN)C(C)(C)C)NC(=O)[C@H](CC(N)=O)NC(=O)C(C)(C)NC(=O)[C@H](CCCNC(=N)N)NC(=O)[C@H](CCCCN)NC1=O [PSM-0199, DOTA-Thr-Aib-Phe-[Cys-Lys-Arg-Aib-Asn-Cys]-Tle-en] ({DOTA}-T[Aib]FCKR[Aib]NC[Tle]-Ethylenediamine; disulfide 4-9) | 0.33 | 170 % ID/g*h | < 200 nM | < 12.6 nM |  |  |  |  |  |  |
| CC(=O)N[C@H](C(=O)NC(C)(C)C(=O)N[C@@H](Cc1ccccc1)C(=O)N[C@H]1CSSC[C@@H](C(=O)N[C@H](C(=O)N[C@H](C(=O)NCCCOCCOCCOCCCNC(=O)CCC(=O)N[C@H](CCCCNC(=O)CN2CCN(CC(=O)O)CCN(CC(=O)O)CCN(CC(=O)O)CC2)C(N)=O)[C@@H](C)O)C(C)(C)C)NC(=O)[C@H](CC(N)=O)NC(=O)C(C)(C)NC(=O)[C@H](CCCNC(=N)N)NC(=O)[C@H](CCCCN)NC1=O)[C@@H](C)O [PSM-0285, Ac-Thr-Aib-Phe-[Cys-Lys-Arg-Aib-Asn-Cys]-Tle-Thr-Ttds-lys(DOTA)-NH2] (Ac-T[Aib]FCKR[Aib]NC[Tle]T-{TtdsdLys(DOTA)NH2}; disulfide 4-9) | 0.91 | 210 % ID/g*h |  |  | < 200 nM | < 12.6 nM |  |  |  |  |
| C[C@@H]1NC(=O)[C@H](CCCNC(=N)N)NC(=O)[C@H](CCCCN)NC(=O)[C@@H](NC(=O)[C@H](Cc2ccccc2)NC(=O)C(C)(C)NC(=O)[C@@H](NC(=O)CCC(=O)NCCCOCCOCCOCCCNC(=O)CN2CCN(CC(=O)O)CCN(CC(=O)O)CCN(CC(=O)O)CC2)[C@@H](C)O)CSSC[C@@H](C(=O)N[C@H](C(=O)N[C@H](C(N)=O)[C@@H](C)O)C(C)(C)C)NC(=O)[C@H](CC(N)=O)NC1=O [PSM-0237, DOTA-Ttds-Thr-Aib-Phe-[Cys-Lys-Arg-Ala-Asn-Cys]-Tle-Thr-NH2] ({X3-Suc}-T[Aib]FCKRANC[Tle]T-NH2; disulfide 4-9) | 0.44 | 180 % ID/g*h | < 200 nM | < 12.6 nM |  |  |  |  |  |  |
| CC(=O)N[C@H](C(=O)NC(C)(C)C(=O)N[C@@H](Cc1ccc(Cl)cc1)C(=O)N[C@H]1CSSC[C@@H](C(=O)N[C@H](C(=O)NCCNC(=O)CN2CCN(CC(=O)O)CCN(CC(=O)O)CCN(CC(=O)O)CC2)C(C)(C)C)NC(=O)[C@H](CC(N)=O)NC(=O)C(C)(C)NC(=O)[C@H](CCCNC(=N)N)NC(=O)[C@H](CCCCN)NC1=O)[C@@H](C)O [PSM-0269, Ac-Thr-Aib-Pcf-[Cys-Lys-Arg-Aib-Asn-Cys]-Tle-en-DOTA] (Ac-T[Aib][Phe(4-Cl)]CKR[Aib]NC[Tle]-{Ethylenediamine-DOTA}; disulfide 4-9) | 0.87 | 150 % ID/g*h |  |  | < 200 nM | < 12.6 nM |  |  |  |  |
| C[C@@H](O)[C@H](NC(=O)[C@@H](NC(=O)[C@@H]1CSSC[C@H](NC(=O)[C@H](Cc2ccccc2)NC(=O)C(C)(C)NC(=O)[C@@H](NC(=O)CN2CCN(CC(=O)O)CCN(CC(=O)O)CCN(CC(=O)O)CC2)[C@@H](C)O)C(=O)N[C@@H](CCCCN)C(=O)N[C@@H](CCCNC(=N)N)C(=O)NC(C)(C)C(=O)N[C@@H](CC(N)=O)C(=O)N1)C(C)(C)C)C(N)=O [PSM-0580, DOTA-Thr-Aib-Phe-[Cys-Lys-Arg-Aib-Asn-Cys]-Tle-Thr-NH2] ({DOTA}-T[Aib]FCKR[Aib]NC[Tle]T-NH2; disulfide 4-9) | 1.6 | 110 % ID/g*h |  |  |  |  | < 200 nM | < 12.6 nM |  |  |
| CCCCNC(=O)N[C@H](C(=O)NC(C)(C)C(=O)N[C@@H](Cc1ccc(Cl)cc1)C(=O)N[C@H]1CSSC[C@@H](C(=O)N[C@H](C(=O)N[C@H](C(=O)N2CCC(CC(=O)N[C@H](CCCCNC(=O)CN3CCN(CC(=O)O)CCN(CC(=O)O)CCN(CC(=O)O)CC3)C(N)=O)CC2)[C@@H](C)O)C(C)(C)C)NC(=O)[C@H](CC(N)=O)NC(=O)C(C)(C)NC(=O)[C@H](CCCNC(=N)N)NC(=O)[C@H](CCCCN)NC1=O)[C@@H](C)O [PSM-0371, nBuCAyl-Thr-Aib-Pcf-[Cys-Lys-Arg-Aib-Asn-Cys]-Tle-Thr-Cmp-lys(DOTA)-NH2] ({NHBu-CO}-T[Aib][Phe(4-Cl)]CKR[Aib]NC[Tle]T[X1][dK](DOTA)-NH2; disulfide 4-9) | 0.62 | 120 % ID/g*h |  |  |  |  |  |  | < 200 nM | < 12.6 nM |
| CCNC(=O)NC(=N)NCCC[C@@H]1NC(=O)[C@H](CCCCN)NC(=O)[C@@H](NC(=O)[C@H](Cc2ccc(Cl)cc2)NC(=O)C(C)(C)NC(=O)[C@@H](NC(=O)CC2CCN(C(=O)CN3CCN(CC(=O)O)CCN(CC(=O)O)CCN(CC(=O)O)CC3)CC2)[C@@H](C)O)CSSC[C@@H](C(=O)N[C@H](C(=O)N[C@H](C(N)=O)[C@@H](C)O)C(C)(C)C)NC(=O)[C@H](CC(N)=O)NC(=O)C(C)(C)NC1=O [PSM-0579, DOTA-Cmp-Thr-Aib-Pcf-[Cys-Lys-Arg(EtCAyl)-Aib-Asn-Cys]-Tle-Thr-NH2] ({DOTA}-[X1]T[Aib][Phe(4-Cl)]CKR([CO-NHEt])[Aib]NC[Tle]T-NH2; disulfide 5-10) | 0.6 | 110 % ID/g*h |  |  |  |  | < 200 nM | < 12.6 nM |  |  |
| C[C@@H](O)[C@H](NC(=O)[C@@H](NC(=O)[C@@H]1CSSC[C@H](NC(=O)[C@H](Cc2ccc(Cl)cc2)NC(=O)C(C)(C)NC(=O)[C@@H](NC(=O)CN2CCN(CC(=O)O)CCN(CC(=O)O)CCN(CC(=O)O)CC2)[C@@H](C)O)C(=O)N[C@@H](CCCCN)C(=O)N[C@@H](CCCNC(=N)N)C(=O)NC(C)(C)C(=O)N[C@@H](CC(N)=O)C(=O)N1)C(C)(C)C)C(N)=O [PSM-0573, DOTA-Thr-Aib-Pcf-[Cys-Lys-Arg-Aib-Asn-Cys]-Tle-Thr-NH2] ({DOTA}-T[Aib][Phe(4-Cl)]CKR[Aib]NC[Tle]T-NH2; disulfide 4-9) | 1.1 | 160 % ID/g*h |  |  |  |  | < 200 nM | < 12.6 nM |  |  |
| C[C@@H](O)[C@H](NC(=O)CC1CCN(C(=O)CN2CCN(CC(=O)O)CCN(CC(=O)O)CCN(CC(=O)O)CC2)CC1)C(=O)NC(C)(C)C(=O)N[C@@H](Cc1ccc(Cl)cc1)C(=O)N[C@H]1CSSC[C@@H](C(=O)N[C@H](C(=O)NCCN)C(C)(C)C)NC(=O)[C@H](CC(N)=O)NC(=O)C(C)(C)NC(=O)[C@H](CCCNC(=N)N)NC(=O)[C@H](CCCCN)NC1=O [PSM-0384, DOTA-Cmp-Thr-Aib-Pcf-[Cys-Lys-Arg-Aib-Asn-Cys]-Tle-en] ({DOTA}-[X1]T[Aib][Phe(4-Cl)]CKR[Aib]NC[Tle]-Ethylenediamine; disulfide 5-10) | 0.30 | 220 % ID/g*h |  |  |  |  |  |  | < 200 nM | < 12.6 nM |
